Experimental data as given in ChEMBL document CHEMBL2413072, “Synthesis and in vitro anticancer studies of novel C-2 arylidene congeners of lantadenes” (2013).

Experiments:
Format in all cases: functional
SW-620 = test: Growth inhibition of human SW620 cells by sulforhodamine B assay
NCI-H522 [1] = test: Growth inhibition of human NCI-H522 cells by sulforhodamine B assay
HOP-92 [2] = test: Growth inhibition of human HOP92 cells by sulforhodamine B assay
UACC-257 = test: Growth inhibition of human UACC257 cells assessed as cell growth at 10^-8 M by sulforhodamine B assay; settings: read-out: Activity
SK-MEL-28 = test: Growth inhibition of human SK-MEL-28 cells assessed as cell growth at 10^-8 M by sulforhodamine B assay; settings: read-out: Activity
SF-539 [3] = test: Growth inhibition of human SF539 cells assessed as cell growth at 10^-8 M by sulforhodamine B assay; settings: read-out: Activity
KM12 = test: Growth inhibition of human KM12 cells assessed as cell growth at 10^-8 M by sulforhodamine B assay; settings: read-out: Activity
HCT-116 = test: Growth inhibition of human HCT116 cells assessed as cell growth at 10^-8 M by sulforhodamine B assay; settings: read-out: Activity
NCI-H522 [4] = test: Growth inhibition of human NCI-H522 cells assessed as cell growth at 10^-8 M by sulforhodamine B assay; settings: read-out: Activity
UO-31 [5] = test: Growth inhibition of human UO31 cells by sulforhodamine B assay
TK-10 = test: Growth inhibition of human TK10 cells by sulforhodamine B assay
A498 = test: Growth inhibition of human A498 cells by sulforhodamine B assay
OVCAR-5 = test: Growth inhibition of human OVCAR5 cells by sulforhodamine B assay
LOX IMVI = test: Growth inhibition of human LOXIMVI cells by sulforhodamine B assay
U-251 = test: Growth inhibition of human U251 cells by sulforhodamine B assay
SF-295 = test: Growth inhibition of human SF295 cells by sulforhodamine B assay
MDA-MB-231 = test: Growth inhibition of human MDA-MB-231 cells assessed as cell growth at 10^-4 M by sulforhodamine B assay; settings: read-out: Activity
MCF7 = test: Growth inhibition of human MCF7 cells assessed as cell growth at 10^-4 M by sulforhodamine B assay; settings: read-out: Activity
DU-145 = test: Growth inhibition of human DU145 cells assessed as cell growth at 10^-4 M by sulforhodamine B assay; settings: read-out: Activity
ACHN = test: Growth inhibition of human ACHN cells assessed as cell growth at 10^-4 M by sulforhodamine B assay; settings: read-out: Activity
OVCAR-3 [6] = test: Growth inhibition of human OVCAR3 cells assessed as cell growth at 10^-4 M by sulforhodamine B assay; settings: read-out: Activity
UACC-62 = test: Growth inhibition of human UACC62 cells assessed as cell growth at 10^-4 M by sulforhodamine B assay; settings: read-out: Activity
M14 = test: Growth inhibition of human M14 cells assessed as cell growth at 10^-4 M by sulforhodamine B assay; settings: read-out: Activity
NCI-H460 [7] = test: Growth inhibition of human NCI-H460 cells assessed as cell growth at 10^-4 M by sulforhodamine B assay; settings: read-out: Activity
MDA-MB-468 [8] = test: Growth inhibition of human MDA-MB-468 cells assessed as cell growth at 10^-6 M by sulforhodamine B assay; settings: read-out: Activity
PC-3 = test: Growth inhibition of human PC3 cells assessed as cell growth at 10^-6 M by sulforhodamine B assay; settings: read-out: Activity
SF-539 [9] = test: Growth inhibition of human SF539 cells assessed as cell growth at 10^-6 M by sulforhodamine B assay; settings: read-out: Activity
A549 = test: Growth inhibition of human A549/ATCC cells assessed as cell growth at 10^-6 M by sulforhodamine B assay; settings: read-out: Activity
UO-31 [10] = test: Growth inhibition of human UO31 cells assessed as cell growth at 10^-7 M by sulforhodamine B assay; settings: read-out: Activity
786-0 = test: Growth inhibition of human 786-0 cells assessed as cell growth at 10^-7 M by sulforhodamine B assay; settings: read-out: Activity
OVCAR-3 [11] = test: Growth inhibition of human OVCAR3 cells assessed as cell growth at 10^-7 M by sulforhodamine B assay; settings: read-out: Activity
SK-MEL-2 = test: Growth inhibition of human SK-MEL-2 cells assessed as cell growth at 10^-7 M by sulforhodamine B assay; settings: read-out: Activity
HT-29 = test: Growth inhibition of human HT-29 cells assessed as cell growth at 10^-7 M by sulforhodamine B assay; settings: read-out: Activity
NCI-H460 [12] = test: Growth inhibition of human NCI-H460 cells assessed as cell growth at 10^-7 M by sulforhodamine B assay; settings: read-out: Activity
HOP-92 [13] = test: Growth inhibition of human HOP92 cells assessed as cell growth at 10^-7 M by sulforhodamine B assay; settings: read-out: Activity
MDA-MB-468 [14] = test: Growth inhibition of human MDA-MB-468 cells assessed as cell growth at 10^-8 M by sulforhodamine B assay; settings: read-out: Activity
BT-549 = test: Growth inhibition of human BT549 cells assessed as cell growth at 10^-8 M by sulforhodamine B assay; settings: read-out: Activity
CAKI-1 = test: Growth inhibition of human CAKI-1 cells assessed as cell growth at 10^-8 M by sulforhodamine B assay; settings: read-out: Activity
[15] = read-out: LC50 (the source's name)
[16] = read-out: pLC50 (the source's name) (converted)

CC(C)=CC(=O)O[C@@H]1CC(C)(C)C[C@H]2C3=CC[C@@H]4[C@@]5(C)CCC(=O)C(C)(C)[C@@H]5CC[C@@]4(C)[C@]3(C)CC[C@@]12C(=O)O
GI50 (SW-620; read-out: GI50): 4 µM | CC50 (SW-620; [15]): > 100 µM | TGI (SW-620; read-out: TGI): 36.1 µM | GI50 (SW-620; read-out: pGI50 (converted)): 3.98 µM | CC50 (SW-620; [16]): > 100 µM | TGI (SW-620; read-out: pTGI (converted)): 36.3 µM | GI50 (NCI-H522 [1]; read-out: GI50): 3.14 µM | CC50 (NCI-H522 [1]; [15]): > 100 µM | TGI (NCI-H522 [1]; read-out: TGI): 29.4 µM | GI50 (NCI-H522 [1]; read-out: pGI50 (converted)): 3.16 µM | CC50 (NCI-H522 [1]; [16]): > 100 µM | TGI (NCI-H522 [1]; read-out: pTGI (converted)): 29.5 µM | GI50 (HOP-92 [2]; read-out: GI50): 1.7 µM | CC50 (HOP-92 [2]; [15]): > 100 µM | TGI (HOP-92 [2]; read-out: TGI): 7.02 µM | GI50 (HOP-92 [2]; read-out: pGI50 (converted)): 1.7 µM | CC50 (HOP-92 [2]; [16]): > 100 µM | TGI (HOP-92 [2]; read-out: pTGI (converted)): 7.08 µM | growth at 0.01 µM (UACC-257): 88% | growth at 0.01 µM (SK-MEL-28): 108% | growth at 0.01 µM (SF-539 [3]): 93% | growth at 0.01 µM (KM12): 101% | growth at 0.01 µM (HCT-116): 98% | growth at 0.01 µM (NCI-H522 [4]): 102% | GI50 (UO-31 [5]; read-out: GI50): 2.95 µM | CC50 (UO-31 [5]; [15]): > 100 µM | TGI (UO-31 [5]; read-out: TGI): 32.2 µM | GI50 (UO-31 [5]; read-out: pGI50 (converted)): 2.95 µM | CC50 (UO-31 [5]; [16]): > 100 µM | TGI (UO-31 [5]; read-out: pTGI (converted)): 32.4 µM | GI50 (TK-10; read-out: GI50): 7.02 µM | CC50 (TK-10; [15]): > 100 µM | TGI (TK-10; read-out: TGI): 49.6 µM | GI50 (TK-10; read-out: pGI50 (converted)): 7.08 µM | CC50 (TK-10; [16]): > 100 µM | TGI (TK-10; read-out: pTGI (converted)): 50.1 µM | GI50 (A498; read-out: GI50): 1.59 µM | CC50 (A498; [15]): > 100 µM | TGI (A498; read-out: TGI): 14.2 µM | GI50 (A498; read-out: pGI50 (converted)): 1.58 µM | CC50 (A498; [16]): > 100 µM | TGI (A498; read-out: pTGI (converted)): 14.1 µM | GI50 (OVCAR-5; read-out: GI50): 6.53 µM | CC50 (OVCAR-5; [15]): > 100 µM | TGI (OVCAR-5; read-out: TGI): 32.7 µM | GI50 (OVCAR-5; read-out: pGI50 (converted)): 6.61 µM | CC50 (OVCAR-5; [16]): > 100 µM | TGI (OVCAR-5; read-out: pTGI (converted)): 32.4 µM | GI50 (LOX IMVI; read-out: GI50): 6.32 µM | CC50 (LOX IMVI; [15]): > 100 µM | TGI (LOX IMVI; read-out: TGI): 29.3 µM | GI50 (LOX IMVI; read-out: pGI50 (converted)): 6.31 µM | CC50 (LOX IMVI; [16]): > 100 µM | TGI (LOX IMVI; read-out: pTGI (converted)): 29.5 µM | GI50 (U-251; read-out: GI50): 2.9 µM | CC50 (U-251; [15]): > 100 µM | TGI (U-251; read-out: TGI): 20.7 µM | GI50 (U-251; read-out: pGI50 (converted)): 2.88 µM | CC50 (U-251; [16]): > 100 µM | TGI (U-251; read-out: pTGI (converted)): 20.9 µM | GI50 (SF-295; read-out: GI50): 1.7 µM | CC50 (SF-295; [15]): 72.7 µM | TGI (SF-295; read-out: TGI): 11.9 µM | GI50 (SF-295; read-out: pGI50 (converted)): 1.7 µM | CC50 (SF-295; [16]): 72.4 µM | TGI (SF-295; read-out: pTGI (converted)): 12 µM | growth at 100 µM (MDA-MB-231): -64% | growth at 100 µM (MCF7): 2% | growth at 100 µM (DU-145): -51% | growth at 100 µM (ACHN): -31% | growth at 100 µM (OVCAR-3 [6]): -73% | growth at 100 µM (UACC-62): -80% | growth at 100 µM (M14): -62% | growth at 100 µM (NCI-H460 [7]): -54% | growth at 1 µM (MDA-MB-468 [8]): 74% | growth at 1 µM (PC-3): 56% | growth at 1 µM (SF-539 [9]): 90% | growth at 1 µM (A549): 46% | growth at 0.1 µM (UO-31 [10]): 91% | growth at 0.1 µM (786-0): 99% | growth at 0.1 µM (OVCAR-3 [11]): 100% | growth at 0.1 µM (SK-MEL-2): 94% | growth at 0.1 µM (HT-29): 95% | growth at 0.1 µM (NCI-H460 [12]): 101% | growth at 0.1 µM (HOP-92 [13]): 90% | growth at 0.01 µM (MDA-MB-468 [14]): 92% | growth at 0.01 µM (BT-549): 114% | growth at 0.01 µM (CAKI-1): 95%
